Consider eleven molecules from ChEMBL document CHEMBL1159053, “Synthesis and antifungal activities in vitro of novel pyrazino [2,1-a] isoquinolin derivatives” (2010).

As a reminder, the MIC80 is the lowest concentration that inhibits either 80% of growth or 80% of the strains tested, depending on the study.

The structures appear in SMILES notation. ≈ marks a conversion by molar mass, not a printed value. A value given as a limit tells only on which side of the number the result lay.

The first experiment deals with Candida albicans. Briefly: Antifungal activity against Candida albicans by serial dilution method. It counts as functional.
Regarding `CCCCN1CCN2CCc3cc(O)c(O)cc3C2C1` (stereo not given), the MIC80 was greater than 64 mg/L.
Regarding `CCCCCCCCN1CC(=O)N2CCc3cc(OC)c(OC)cc3C2C1` (stereo not given), the MIC80 amounted to 16 mg/L (≈ 42.7 µM).
In turn, `CCCCCCCCCN1CC(=O)N2CCc3ccc(F)cc3C2C1` (stereo not given) yielded an MIC80 of 32 mg/L (≈ 92.4 µM).
`CCCCCCCCCN1CCN2CCc3cc(OC)c(OC)cc3C2C1` (stereo not given) displayed an MIC80 of 32 mg/L (≈ 85.4 µM).
Take `CCCCCCCCCN1CCN2CCc3ccc(F)cc3C2C1` (stereo not given): the MIC80 stood at 8 mg/L (≈ 24.1 µM).
For the molecule `CCCCCCCCCCCCN1CCN2CCc3cc(OC)c(OC)cc3C2C1` (stereo not given), the MIC80 was greater than 64 mg/L.
`CCCCCCCCCCCCN1CCN2CCc3ccc(F)cc3C2C1` (stereo not given): the MIC80 was greater than 64 mg/L.
The same measure, in the same setting: the same measure for `CCCCCCCCCCCCN1CC(=O)N2CCc3ccc(F)cc3C2C1` (stereo not given): greater than 64 mg/L; for `CCCCCCCCCCCCN1CCN2CCc3cc(O)c(O)cc3C2C1` (stereo not given): 64 mg/L (≈ 165 µM); for `CCCCN1CCN2CCc3cc(OC)c(OC)cc3C2C1` (stereo not given): greater than 64 mg/L.
In turn, `OC(Cn1cncn1)(Cn1cncn1)c1ccc(F)cc1F` [FLUCONAZOLE] displayed an MIC80 of 2 mg/L (≈ 6.53 µM).

The test system of another experiment is Nannizzia gypsea. Put plainly: Antifungal activity against Microsporum gypseum by serial dilution method. It counts as functional.
The molecule `CCCCN1CCN2CCc3cc(O)c(O)cc3C2C1` (stereo not given) came in with an MIC80 greater than 64 mg/L.
The molecule `CCCCCCCCN1CC(=O)N2CCc3cc(OC)c(OC)cc3C2C1` (stereo not given) displayed an MIC80 of 8 mg/L (≈ 21.4 µM).
Same read-out and setting: then `CCCCCCCCCN1CC(=O)N2CCc3ccc(F)cc3C2C1` (stereo not given), with 0.5 mg/L (≈ 1.44 µM); and `CCCCCCCCCN1CCN2CCc3cc(OC)c(OC)cc3C2C1` (stereo not given), with 2 mg/L (≈ 5.34 µM).
On to `CCCCCCCCCN1CCN2CCc3ccc(F)cc3C2C1` (stereo not given), for which the MIC80 amounted to 2 mg/L (≈ 6.01 µM).
As to `CCCCCCCCCCCCN1CCN2CCc3cc(OC)c(OC)cc3C2C1` (stereo not given), the MIC80 was determined as 32 mg/L (≈ 76.8 µM).
Take `CCCCCCCCCCCCN1CCN2CCc3ccc(F)cc3C2C1` (stereo not given): the MIC80 came to 4 mg/L (≈ 10.7 µM).
With `CCCCCCCCCCCCN1CC(=O)N2CCc3ccc(F)cc3C2C1` (stereo not given), the MIC80 amounted to 64 mg/L (≈ 165 µM).
Same read-out and setting: the same measure for `CCCCCCCCCCCCN1CCN2CCc3cc(O)c(O)cc3C2C1` (stereo not given): 16 mg/L (≈ 41.2 µM); for `CCCCN1CCN2CCc3cc(OC)c(OC)cc3C2C1` (stereo not given): greater than 64 mg/L; for `OC(Cn1cncn1)(Cn1cncn1)c1ccc(F)cc1F` [FLUCONAZOLE]: 2 mg/L (≈ 6.53 µM).

A further experiment deals with Trichophyton rubrum. Briefly: Antifungal activity against Trichophyton rubrum by serial dilution method. It counts as functional.
With `CCCCN1CCN2CCc3cc(O)c(O)cc3C2C1` (stereo not given), the MIC80 is greater than 64 mg/L.
Regarding `CCCCCCCCN1CC(=O)N2CCc3cc(OC)c(OC)cc3C2C1` (stereo not given), the MIC80 came out at 32 mg/L (≈ 85.4 µM).
Still for that read-out and setting: then `CCCCCCCCCN1CC(=O)N2CCc3ccc(F)cc3C2C1` (stereo not given), with 4 mg/L (≈ 11.5 µM); and `CCCCCCCCCN1CCN2CCc3cc(OC)c(OC)cc3C2C1` (stereo not given), with 8 mg/L (≈ 21.4 µM); and `CCCCCCCCCN1CCN2CCc3ccc(F)cc3C2C1` (stereo not given), with 8 mg/L (≈ 24.1 µM).
`CCCCCCCCCCCCN1CCN2CCc3cc(OC)c(OC)cc3C2C1` (stereo not given) displayed an MIC80 greater than 64 mg/L.
As to `CCCCCCCCCCCCN1CCN2CCc3ccc(F)cc3C2C1` (stereo not given), the MIC80 was determined as 64 mg/L (≈ 171 µM).
Turning to `CCCCCCCCCCCCN1CC(=O)N2CCc3ccc(F)cc3C2C1` (stereo not given), the MIC80 was 64 mg/L (≈ 165 µM).
Molecule `CCCCCCCCCCCCN1CCN2CCc3cc(O)c(O)cc3C2C1` (stereo not given) displayed an MIC80 of 16 mg/L (≈ 41.2 µM).
For the molecule `CCCCN1CCN2CCc3cc(OC)c(OC)cc3C2C1` (stereo not given), the MIC80 was greater than 64 mg/L.
In the case of `OC(Cn1cncn1)(Cn1cncn1)c1ccc(F)cc1F` [FLUCONAZOLE], the MIC80 worked out at 32 mg/L (≈ 104 µM).

The subject of the next experiment is Cryptococcus neoformans. Put plainly: Antifungal activity against Cryptococcus neoformans by serial dilution method. It counts as functional.
In the case of `CCCCN1CCN2CCc3cc(O)c(O)cc3C2C1` (stereo not given), the MIC80 was 4 mg/L (≈ 14.5 µM).
As for `CCCCCCCCN1CC(=O)N2CCc3cc(OC)c(OC)cc3C2C1` (stereo not given), the MIC80 worked out at 8 mg/L (≈ 21.4 µM).
`CCCCCCCCCN1CC(=O)N2CCc3ccc(F)cc3C2C1` (stereo not given) yielded an MIC80 of 2 mg/L (≈ 5.77 µM).
Molecule `CCCCCCCCCN1CCN2CCc3cc(OC)c(OC)cc3C2C1` (stereo not given) gave an MIC80 of 4 mg/L (≈ 10.7 µM).
`CCCCCCCCCN1CCN2CCc3ccc(F)cc3C2C1` (stereo not given) returned an MIC80 of 4 mg/L (≈ 12 µM).
In turn, `CCCCCCCCCCCCN1CCN2CCc3cc(OC)c(OC)cc3C2C1` (stereo not given) displayed an MIC80 of 16 mg/L (≈ 38.4 µM).
For the molecule `CCCCCCCCCCCCN1CCN2CCc3ccc(F)cc3C2C1` (stereo not given), the MIC80 was determined as 64 mg/L (≈ 171 µM).
Same read-out and setting: the same measure for `CCCCCCCCCCCCN1CC(=O)N2CCc3ccc(F)cc3C2C1` (stereo not given): greater than 64 mg/L; for `CCCCCCCCCCCCN1CCN2CCc3cc(O)c(O)cc3C2C1` (stereo not given): 16 mg/L (≈ 41.2 µM).
`CCCCN1CCN2CCc3cc(OC)c(OC)cc3C2C1` (stereo not given) displayed an MIC80 greater than 64 mg/L.
In the case of `OC(Cn1cncn1)(Cn1cncn1)c1ccc(F)cc1F` [FLUCONAZOLE], the MIC80 stood at 4 mg/L (≈ 13.1 µM).

A further experiment relates to Aspergillus fumigatus. Put plainly: Antifungal activity against Aspergillus fumigatus by serial dilution method. In kind it is functional.
Molecule `CCCCN1CCN2CCc3cc(O)c(O)cc3C2C1` (stereo not given) showed an MIC80 greater than 64 mg/L.
For `CCCCCCCCN1CC(=O)N2CCc3cc(OC)c(OC)cc3C2C1` (stereo not given), the MIC80 came out at 64 mg/L (≈ 171 µM).
As to `CCCCCCCCCN1CC(=O)N2CCc3ccc(F)cc3C2C1` (stereo not given), the MIC80 is 16 mg/L (≈ 46.2 µM).
`CCCCCCCCCN1CCN2CCc3cc(OC)c(OC)cc3C2C1` (stereo not given): the MIC80 was 8 mg/L (≈ 21.4 µM).
The molecule `CCCCCCCCCN1CCN2CCc3ccc(F)cc3C2C1` (stereo not given) registered an MIC80 of 16 mg/L (≈ 48.1 µM).
The molecule `CCCCCCCCCCCCN1CCN2CCc3cc(OC)c(OC)cc3C2C1` (stereo not given) had an MIC80 greater than 64 mg/L.
As for `CCCCCCCCCCCCN1CCN2CCc3ccc(F)cc3C2C1` (stereo not given), the MIC80 was greater than 64 mg/L.
Regarding `CCCCCCCCCCCCN1CC(=O)N2CCc3ccc(F)cc3C2C1` (stereo not given), the MIC80 stood at 32 mg/L (≈ 82.4 µM).
As to `CCCCCCCCCCCCN1CCN2CCc3cc(O)c(O)cc3C2C1` (stereo not given), the MIC80 amounted to 64 mg/L (≈ 165 µM).
The same measure, in the same setting: the same measure for `CCCCN1CCN2CCc3cc(OC)c(OC)cc3C2C1` (stereo not given): greater than 64 mg/L.
`OC(Cn1cncn1)(Cn1cncn1)c1ccc(F)cc1F` [FLUCONAZOLE] returned an MIC80 greater than 64 mg/L.
